Results as given in patent US20260183429A1, “COMPOSITIONS FOR MODULATING ACETYLATED TUBULIN LEVELS AND METHODS THEREOF” (THE TRUSTEES OF COLUMBIA UNIVERSITY IN THE CITY OF NEW YORK, priority 2023, published 2026).
Marks after values point to notes of the source that are not given here. Each block holds one molecule with its values, some of them ahead of it.

Tests used:
Format in all cases: cell-based, mouse
[1] = tested on: acetylated tubulin in Iqgap1 KO MEFs; test: Acetylated tubulin levels in Iqgap1 KO MEFs; details: 10 nM TSA, 6 h or 12 h
Protocol: (§1) Cells were fixed in 4% PFA for 15 min and permeabilized with 0.1% Triton X-100 for 5 min at R.T. For the MT cytoskeleton, cells were fixed in ice cold MetOH for 10′ prior to rehydration in PBS buffer. Cells were then washed in PBS, blocked in 2% FBS and 2% BSA in PBS for 1 h, stained with primary antibodies overnight at 4° C. followed by secondary antibodies for 1 h. Mounted samples were observed using a Zeiss LSM 800 confocal microscope using a 63× objective (Plan-Apochromat, NA 1.4). Z stack (0.5 um) images were acquired. To calculate the Mitotic Index as percentage, the number of cells in mitosis were divided by the total number of cells multiplied by 100. […] ROIs were selected in both channels to calculate mean fluorescence and integrated density prior to calculating corrected total fluorescence intensity (CTCF=Integrated Density−(Area of selected cell*Mean fluorescence of background readings). For measuring MT associated MB11 intensity, an ROI was selected along individual tyrosinated MTs using ImageJ and GTP tubulin (hMB11) pixel intensity was calculated along the tyrosinated tubulin signal and corrected by subtracting out background signal fluorescence intensity.
(§2) Cells were lysed in Laemmli sample buffer and boiled at 96° C. for 5 min. […] Image acquisition was performed with an Odyssey imaging system (LI-COR Biosciences, NE) and analyzed with Odyssey software.

WT MEFs = test: MT plus end dynamics, GFP-tubulin live imaging, WT MEFs; details: WT + TSA
Protocol: (§3) Fibroblasts were transfected with pMSCV-puro-tagGFP-C4 α-tubulin plasmid to generate a green fluorescent protein (GFP)-tubulin stably expressing cell line. Live imaging of MT dynamics in transfected cells was performed at 37° C. and 5% CO2 for 5 min (5 s/f) with a 100×
(§4) PlanApo objective (numerical aperture 1.45) and an iXon X3 CCD camera (Andor, Belfast, United Kingdom) on a Nikon Eclipse Ti microscope controlled by Nikon's NIS-Elements software (Nikon, Tokyo, Japan). Movies were analyzed by ImageJ using a manual tracking plug-in. Dynamicity is calculated by dividing the sum of growth and shrinkage distances by MT lifetime.

Iqgap1 KO MEFs [2] = test: Mitochondria dynamics in Iqgap1 KO MEFs; details: 10 nM TSA, 6 h, compared with TTL silencing
Protocol: (§5) Mitochondria were labeled using MitoTracker™ Red CMROX according to manufacturer protocol (ThermoFisher Scientific) and detected by epifluorescence microscope equipped with 60× objective lens (Olympus IX81) and a monochrome CCD camera (Sensicam QE, Cooke Corporation). Aspect ratio (length/width) were measured in unedited image files by using Image J/FIJI. Brightness and contrast of the images were adjusted to optimize visualization of the mitochondrial segments and to reduce background noise. After selecting an individual cell, the Analyze Particles function (pixel size 10-infinity; circularity 0.00-1.00) was used to count the number of noncontiguous, discrete particles, and describe their shape. For mitochondrial distribution and displacement velocity mitochondria were live imaged for 3 min at 2 sec/frame at 37° C. A customized Mitoplot software was used for analyzing mitochondrial distribution by defining the center of cell and drawing a line towards periphery. Manual tracking plug-in in ImageJ/FIJI was used to analyze mitochondrial displacement velocity by selecting individual mitochondria.

MFN2 KO MEFs [3] = test: Lipidomics of lipid classes in MFN2 KO MEFs; details: MFN2 KO cells; TSA 10 nM
MFN2 KO MEFs [4] = test: Mitochondrial morphology, motility, distribution and association with MTs in MFN2 KO MEFs; details: MFN2 KO cells
Protocol: For immunofluorescence staining of the MT cytoskeleton, cells were fixed in ice cold MetOH for 10′ prior to rehydration in PBS buffer. For all other staining, cells were fixed in 4% PFA for 15 min and permeabilized with 0.1% Triton X-100 for 5 min at R.T. Cells were then washed in PBS, blocked in 2% FBS and 2% BSA in PBS for 1 h, stained with primary antibodies overnight at 4° C. followed by secondary antibodies for 1 h. Mounted samples were observed using a Zeiss LSM 800 confocal microscope equipped with Airyscan module, using a 63× objective (Plan-Apochromat, NA 1.4). Z stack (0.2 um) images were acquired and processed using Zen Blue 2.1 software prior to analysis by ImageJ software. For 3D reconstruction, mitochondrial networks in individual cells were quantified by analyzing the network volume using Imaris software (Bitplane, Concord, MA). For line scan analysis, a line was drawn, and intensity was measured represented as gray values. The amount of fluorescence of the colocalizing pixels in each channel (Mander's coefficient) was calculated using ImageJ. The file was opened, and channels were split. Each select file was changed to 8-bit greyscale and max projection images was generated. Colocalization was assessed by Plugin co-localization finder. To calculate number of ATAT1 foci, each image was converted into an 8-bit greyscale image and ATAT1 signal thresholded until the foci appeared isolated from the background in a binary image. Both channels were then merged into one and the number of foci localizing in the merged stack quantified. To calculate ATAT1 localization with MFN2 on mitochondria, numbers of ATAT1 and MFN2 foci were quantified on each channel individually. Both channels were then merged into one and number of foci in the merged stack analyzed and quantified on mitochondria.
as §5

Iqgap1 KO MEFs [5] = test: MT plus end dynamics, GFP-tubulin live imaging, Iqgap1 KO MEFs; details: Iqgap1 KO + TSA
Protocol: as §3, §4

MFN2 KO MEFs [6] = test: Mitochondria fusion by mitoDendra photoconversion in MFN2 KO MEFs; details: MFN2 KO cells; TSA 10 nM, 6 h
Source text: Dendra2 photoconversion and imaging utilized the protocol from Evrogen. Images were acquired with an Olympus spinning disk microscope EC-Plan-Neofluar 40X/1.3 oil. Z-stack acquisitions over-sampled each optical slice twice, and the Zen 2009 image analysis software was used for maximum z-projections. The 488 nm laser line and the 561 nm laser excited Dendra2 in the unconverted state and photo-converted state, respectively. To photo-switch Dendra2, a region was illuminated with the 405 nm line (4% laser power) for 90 bleaching iterations. The corrected total fluorescence intensity of both the channels was calculated using ImageJ and colocalization percentage was calculated.

[7] = tested on: acetylated tubulin in MFN2 KO MEFs; test: Acetylated tubulin levels by immunoblot and immunofluorescence in MFN2 KO MEFs; details: MFN2 KO cells; 10 nM TSA, 6 h and 12 h (FIGS. 2A-2D)
Protocol: as §1, §2

MFN2 KO MEFs [8] = test: MAM-dependent phospholipid synthesis, 3H-Ser incorporation into PtdSer and PtdEtn; details: TSA 10 nM, 6 h, after 2 h and 4 h
Protocol: Both mitochondria and ER play key roles in the synthesis of phosphatidylserine (PtdSer), phosphatidylethanolamine (PtdEtn), and phosphatidylcholine (PtdCho). PtdSer is synthesized in the MAM; it then translocates to mitochondria, where it is converted to PtdEtn; PtdEtn then translocates back to the MAM, to generate PtdCho. To test the effect of MFN2 on phospholipid synthesis mediated by MAM, WT and MFN2 KO MEF cells were incubated for 2 h with serum-free medium to ensure removal of exogenous lipids. The medium was then replaced with MEM containing […] of 3H-serine for 2, 4 and 6 h. The cells were washed and collected in DPBS, pelleted at 2500×g for 5 min at 4° C., and resuspended in 0.5 ml water, removing a small aliquot for protein quantification. Lipid extraction was done by the Bligh and Dyer method. Briefly, three volumes of chloroform/methanol 2:1 were added to the samples and vortexed. […] The spots corresponding to the relevant phospholipids (identified using co-migrating standards) were scraped and counted in a scintillation counter (Packard Tri-Carb 2900TR). […] Therefore, to directly test the effect of MFN2 mutations on phospholipid synthesis mediated by MAM, control and MFN2 KO fibroblasts were incubated in medium containing 3H-serine and measured the incorporation of the label into newly synthesized 3H-PtdSer and 3H-PtdEtn after 2 and 4 h.

MFN2 KO MEFs [9] = test: MT plus end dynamics, GFP-tubulin live imaging, MFN2 KO MEFs
Protocol: as §3, §4

- central and peripheral mitochondrial displacement velocity (MFN2 KO MEFs [4]; TSA 10 nM, 6 h): normalized
Compound: CC(/C=C/C(=O)NO)=C\[C@@H](C)C(=O)c1ccc(N(C)C)cc1 [TSA, trichostatin A]
- acetylated tubulin levels [1]: restoration of acetylated tubulin levels
- % Growth (WT MEFs; Table 3): 20.04 ± 1.28^c,x %
- % Pause (WT MEFs; Table 3): 63.5 ± 0.64^c,x %
- % Shrinkage (WT MEFs; Table 3): 18.25 ± 1.37^c,x %
- Catastrophe frequency (WT MEFs; Table 3): 0.05 ± 0.004 s⁻¹
- Growth rate (WT MEFs; Table 3): 0.04 ± 0.007 μm/s
- MT lifetime (WT MEFs; Table 3): 56.5 ± 3.66 s
- Rescue freq. (WT MEFs; Table 3): 0.07 ± 0.006 s⁻¹
- Shrinkage rate (WT MEFs; Table 3): 0.07 ± 0.008 μm/s
- % Growth (WT MEFs; Table 4 (Iqgap1 series)): 23.75 ± 0.85^b,x %
- % Pause (WT MEFs; Table 4 (Iqgap1 series)): 50 ± 2.48^b,x %
- % Shrinkage (WT MEFs; Table 4 (Iqgap1 series)): 27.25 ± 3.19%
- Catastrophe frequency (WT MEFs; Table 4 (Iqgap1 series)): 0.06 ± 0.003 s⁻¹
- Growth rate (WT MEFs; Table 4 (Iqgap1 series)): 0.04 ± 0.004 μm/s
- MT dynamicity (WT MEFs; Table 4 (Iqgap1 series)): 3.32 ± 0.24^a,x μm/min
- MT lifetime (WT MEFs; Table 4 (Iqgap1 series)): 49.5 ± 2.32 s
- Rescue freq. (WT MEFs; Table 4 (Iqgap1 series)): 0.07 ± 0.007 s⁻¹
- Shrinkage rate (WT MEFs; Table 4 (Iqgap1 series)): 0.03 ± 0.004 μm/s
- mitochondria dynamics (Iqgap1 KO MEFs [2]): rescue of mitochondria dynamics
- changes in sphingomyelin, cholesterol, cholesteryl esters and ceramide levels (MFN2 KO MEFs [3]): rescued
- co-localization of mitochondria with MTs (MFN2 KO MEFs [4]; 10 nM TSA, 6 h (FIGS. 2E, 2F)): restored
- mitochondria distribution (MFN2 KO MEFs [4]; TSA 10 nM, 6 h): normalized
- mitochondria elongated morphology (MFN2 KO MEFs [4]; TSA 10 nM, 6 h): partially reestablished
- % Growth (Iqgap1 KO MEFs [5]): 25.25 ± 1.54^b,y %
- % Pause (Iqgap1 KO MEFs [5]): 51.75 ± 1.10^b,y %
- % Shrinkage (Iqgap1 KO MEFs [5]): 22.5 ± 0.86^b,y %
- Catastrophe frequency (Iqgap1 KO MEFs [5]): 0.06 ± 0.004 s⁻¹
- Growth rate (Iqgap1 KO MEFs [5]): 0.095 ± 0.006^a,y μm/s
- MT dynamicity (Iqgap1 KO MEFs [5]): 3.77 ± 0.33^b,y μm/min
- MT lifetime (Iqgap1 KO MEFs [5]): 51.25 ± 1.79 s
- Rescue freq. (Iqgap1 KO MEFs [5]): 0.08 ± 0.006 s⁻¹
- Shrinkage rate (Iqgap1 KO MEFs [5]): 0.09 ± 0.004 μm/s
- mitochondria fusion (MFN2 KO MEFs [6]): completely failed to recover
- acetylated tubulin levels [7]: normalized
- MAM-dependent phospholipid synthesis (3H-Ser into 3H-PtdSer and 3H-PtdEtn) (MFN2 KO MEFs [8]): failed to normalize
- % Growth (MFN2 KO MEFs [9]; MFN2 KO + TSA): 22.4 ± 0.90^c,y %
- % Pause (MFN2 KO MEFs [9]; MFN2 KO + TSA): 62.13 ± 1.68^c,y %
- % Shrinkage (MFN2 KO MEFs [9]; MFN2 KO + TSA): 16.05 ± 1.42^c,y %
- Catastrophe frequency (MFN2 KO MEFs [9]; MFN2 KO + TSA): 0.05 ± 0.006 s⁻¹
- Growth rate (MFN2 KO MEFs [9]; MFN2 KO + TSA): 0.08 ± 0.005^a,y μm/s
- MT dynamicity (MFN2 KO MEFs [9]; MFN2 KO + TSA): 4.858 ± 0.46^c,y μm/min
- MT lifetime (MFN2 KO MEFs [9]; MFN2 KO + TSA): 60.25 ± 1.43 ^ s
- Rescue freq. (MFN2 KO MEFs [9]; MFN2 KO + TSA): 0.09 ± 0.004 s⁻¹
- Shrinkage rate (MFN2 KO MEFs [9]; MFN2 KO + TSA): 0.08 ± 0.005^a,y μm/s
- MT dynamics (MFN2 KO MEFs [9]; MFN2 KO cells + TSA (Table 3)): normalized

- mitochondrial displacement velocity, distribution, aspect ratio and fusion compared with TSA (MFN2 KO MEFs [4]; tubacin 20 μM, 6 h (FIGS. 3F-3I)): Identical results
Compound: O=C(CCCCCCC(=O)Nc1ccc([C@H]2O[C@@H](CSc3nc(-c4ccccc4)c(-c4ccccc4)o3)C[C@@H](c3ccc(CO)cc3)O2)cc1)NO [tubacin, Tubacin]
